Results: PMC13303826, “Nicotinonitrile based dual inhibitors of tubulin and topoisomerase II exhibit potent anticancer activity” (Scientific Reports, 2026)
Read-outs that look alike come from different tables or passages of the source.

Tests used:
MDA-MB-231 = tested on: MDA-MB-231; parameters: method as in ref 5, 7 (CA-4), ref 13-15 (VII); settings: Fig. 1; 7 (CA-4), ref 13-15 (VII); cited from earlier work
HeLa = settings: Fig. 1, cited from earlier work
beta-tubulin = assay: Inhibition of tubulin polymerization in MCF-7 cells (beta-tubulin SimpleStep ELISA); format: cell-based, human; settings: MCF7 cells, concentration not given
Source text: Beta-tubulin in vitro simple step ELISA® (Enzyme-Linked Immunosorbent Assay) kit is designed for quantitative measurement of beta-tubulin protein in human cell and tissue homogenate extract samples.
The SimpleStep ELISA® employs an affinity tag labeled capture antibody and a reporter conjugated detector antibody which immunocapture the sample analyte in solution. This entire complex (capture antibody/analyte/detector antibody) is in turn immobilized via immunoaffinity of an anti-tag antibody coating the well. To perform the assay, samples or standards are added to the wells, followed by the antibody mix. After incubation, the wells are washed to remove unbound material. TMB development solution is added and during incubation is catalyzed by horseradish peroxidase (HRP), generating blue coloration. This reaction is then stopped by addition of stop solution completing any color change from blue to yellow. Signal is generated proportionally to the amount of bound analyte and the intensity is measured at 450 nm. Optionally, instead of the endpoint reading, development of TMB can be recorded kinetically at 600 nm. The concentration of beta-tubulin protein in the samples is determined by comparing the optical density (OD) of the samples to the standard curve. Each experiment was repeated two times (Table 2).

HT-29 = tested on: HT-29; parameters: method as in PMID 25840421, PMID 39533473; settings: Fig. 1B; cited from earlier work
colon-26 = tested on: colon-26; parameters: method as in PMID 24669888, PMID 30111667, PMID 9873694; settings: Fig. 1C; cited from earlier work
A549 = tested on: A549; parameters: method as in PMID 33465263; settings: Fig. 1A; cited from earlier work
MCF-7 = tested on: MCF-7; parameters: method as in ref 8 (podophyllotoxin), ref 13-15 (VIII); settings: Fig. 1; ref 8 (podophyllotoxin), ref 13-15 (VIII); cited from earlier work
BJ1 normal cells = assay: LDH release cytotoxicity assay, normal skin fibroblasts BJ1; format: cell-based, human; settings: non-tumor BJ1 fibroblasts
Experimental: (§1) HepG2 (Human liver carcinoma), HCT116 (human colorectal carcinoma), MCF7 (human breast adenocarcinoma), and the normal human skin fibroblast (BJ-1) cell lines were purchased from the american type culture collection (Rockville, MD, USA) and maintained in RPMI-1640 medium which was supplemented with 10% heat-inactivated FBS, 100U/ml penicillin and 100U/ml streptomycin. The cells were grown at 37 °C in a humidified atmosphere of 5% CO2. All experiments were conducted thrice in triplicate (n = 3). All the values were represented as means ± SD. Significant differences between the means of parameters as well as IC50s were determined by probit analysis using SPSS software program (SPSS Inc., Chicago, IL).
(§2) To determine the effect of each synthesized compound on membrane permeability in HepG2, MCF-7 and HCT116 cancer cell lines as well as BJ-1 normal cell line, a lactate dehydrogenase (LDH) release assay was used[29]–[33]. The cells were seeded in 24-well culture plates at a density of 1 × 10^4 cells/well in 500 µL volume and allowed to grow for 18 h before treatment. After treatment with a series of different concentrations of each compound or DOX (positive control), the plates were incubated for 48 h. Then, the supernatant (40 µL) was transferred to a new 96 well to determine LDH release and 6% triton X-100 (40 µL) was added to the original plate for determination of total LDH. An aliquot of 0.1 M potassium phosphate buffer (100 µL, pH 7.5) containing 4.6 mM pyruvic acid was mixed to the supernatant using repeated pipetting. Then, 0.1 M potassium phosphate buffer (100 µL, pH 7.5) containing 0.4 mg/mL reduced β-NADH was added to the wells. The kinetic changes were read for 1 min using ELISA microplate reader in absorbance at wavelength 340 nm. This procedure was repeated with 40 µL of the total cell lysate to determine total LDH. The percentage of LDH release was determined by dividing the LDH released into the media by the total LDH following cell lysis in the same well. The cell Passage numbers for MCF 7 = P13, Hep G2 = P15, HCT 116 = P 9.
(§3) All experiments were conducted in triplicate (n = 3). All the values were represented as mean ± SD. Significant differences between the means of parameters as well as IC50s were determined by probit analysis using SPSS software program (SPSS Inc., Chicago, IL).

MCF7 cells [1] = assay: LDH release cytotoxicity assay, MCF7; format: cell-based; settings: Homo sapiens, 48 h, mean ± SD, read-out: In vitro cytotoxicity IC50 µM ± SD, MCF7
Experimental: as §1, §2, §3

Topo II = assay: Inhibition of topoisomerase II in MCF-7 cells (TOP2B sandwich ELISA); format: cell-based, human; settings: MCF7 cells, concentration not given
Experimental: Mouse TOP2B/Topoisomerase II Beta ELISAKit (Sandwich ELISA) is designed for the quantitative measurement of Topo II enzyme.
This assay is based on the sandwich ELISA principle. Each well of the supplied microtiter plate has been pre-coated with a target specific capture antibody. Standards or samples are added to the wells, and the target antigen binds to the capture antibody. Unbound standard or sample is washed away. A biotin-conjugated detection antibody is then added which binds to the captured antigen. Unbound detection antibody is washed away. An avidin-horseradish peroxidase (HRP) conjugate is then added which binds to the biotin. Unbound avidin-HRP conjugate is washed away. A TMB substrate is then added which reacts with the HRP enzyme resulting in color development. A sulfuric acid stop solution is added to terminate color development reaction and then the optical density (OD) of the well is measured at a wavelength of 450 nm ± 2 nm. An OD standard curve is generated using known antigen concentrations; the OD of an unknown sample can then be compared to the standard curve to determine its antigen concentration. Each experiment was repeated two times (Table 3).

HCT116 cells = assay: LDH release cytotoxicity assay, HCT116; format: cell-based; settings: Homo sapiens, HCT-116, 48 h, mean ± SD, read-out: In vitro cytotoxicity IC50 µM ± SD, HCT116
Experimental: as §1, §2, §3

MCF7 cells [2] = assay: Apoptosis and necrosis analysis by annexin V-FITC/PI staining; format: cell-based, human; settings: at IC50 (2.4 µM), 48 h
Source text: Annexin V apoptosis detection kit is used for analyzing apoptosis and necrosis for active compounds 20 and 26 in MCF7 cells using annexin V-FITC/PI dual staining followed by flow cytometry quantification and fluorescence microscopy detection.
Detection is based on the observation that soon after initiating apoptosis, cells translocate the membrane phosphatidylserine (PS) from the inner face of the plasma membrane to the cell surface. Once on the cell surface, PS can be easily detected by staining with a fluorescent conjugate of annexin V, a protein that has a high affinity for PS. Detection can be analyzed by flow cytometry or/and by fluorescence microscopy. The kit can differentiate between apoptosis and necrosis when performing both annexin V-FITC and PI staining. Assay is summarized as first, induce apoptosis by desired method, collect 1–5 × 10^5 cells by centrifugation, resuspend cells in 500 µl of 1× binding buffer, add 5 µl of annexin V-FITC and 5 µl of propidium iodide and finally incubate at room temperature for 5 min in the dark. After that, analyze annexin V-FITC binding by flow cytometry (Ex = 488 nm; Em = 530 nm) using FITC signal detector (usually FL1) and PI staining by the phycoerythrin emission signal detector (usually FL2) then, observe the cells under a fluorescence microscope using a dual filter set for FITC & rhodamine. Cells that have bound annexin V-FITC will show green staining in the plasma membrane. Cells that have lost membrane integrity will show red staining (PI) throughout the nucleus and a halo of green staining (FITC) on the cell surface.

MCF7 cells [3] = assay: Propidium iodide flow cytometry cell cycle analysis; format: cell-based, human; settings: compound at 2.4 µM
Experimental: Propidium iodide flow cytometry kit (ab139418) is designed for quantitative DNA content analysis in tissue culture cells, so we performed propidium iodide cell cycle analysis for active compounds 20 and 26 using MCF-7 cell line. Propidium iodide staining of DNA is the classic means of cell cycle analysis. The staining procedure takes less than 1 h of total processing time and cells fixed in ethanol are stable for at least several weeks at 4 °C.
Propidium iodide is a fluorescent molecule that binds nucleic acid with little or no sequence preference. Because propidium iodide binds RNA as well as DNA, RNaseA (ribonuclease A) is included in this kit to digest cellular RNA and thus decrease background RNA staining from the experiment. Since propidium iodide is membrane impermeant, ethanol is used to both fix and permeabilize cells. A flow cytometer is required for quantitative analysis. First, fix MCF-7 cells in 66% ethanol, store at + 4 °C for 2 h to 4 weeks and rehydrate cells in PBS. Finally, stain cells with propidium iodide then add RNase for 30 min. Collect propidium iodide fluorescence intensity on FL2 of a flow cytometer and […] laser excitation. A useful way to display propidium iodide data is on a histogram with the cell count on the y-axis and the propidium iodide fluorescence intensity on the x-axis.

HepG2 cells = assay: LDH release cytotoxicity assay, HepG2; format: cell-based; settings: Homo sapiens, 48 h, mean ± SD, read-out: In vitro cytotoxicity IC50 µM ± SD, HepG2
Experimental: as §1, §2, §3

HepG2 = tested on: HepG2; parameters: method as in PMID 31278032; settings: Fig. 1A; cited from earlier work
NCI = tested on: NCI; parameters: method as in PMID 8392342; settings: Fig. 1B; cited from earlier work
HL-60 = tested on: HL-60; parameters: method as in ref 4, 12 (YCH337), ref 13-15 (VIII); settings: Fig. 1; 12 (YCH337), ref 13-15 (VIII); cited from earlier work
[4] = ref 10 (etoposide), 12 (YCH337)

COc1ccc(/C=C\c2cc(OC)c(OC)c(OC)c2)cc1O [CA4, Combretastatin A4]
IC50 (MDA-MB-231): 0.0028 µM | IC50 (HeLa; 7 (CA-4), ref 13-15 (VII)): 0.001 µM | tubulin polymerization % inhibition (beta-tubulin): 72.1%

COC(=O)C1C(c2cc(OC)c(OC)c(OC)c2)c2cc3c(cc2C(n2cc(-c4ccc(F)cc4)nn2)C1C=O)OCO3 (stereo not shown) [VI]
IC50 (HT-29): 0.04 µM

COc1ccc(-c2nnnn2-c2cc(OC)c(OC)c(OC)c2)cc1N [IX]
IC50 (colon-26): 0.0072 µM

COc1cc([C@@H]2c3cc4c(cc3[C@H](O)[C@H]3COC(=O)[C@H]23)OCO4)cc(OC)c1OC [Podophyllotoxin]
IC50 (A549): 1.9 µM | IC50 (MCF-7): 2.21 µM

COc1cc(-c2cc(-c3cc(OC)c(OC)c(OC)c3)c(C#N)c(Cl)n2)cc(OC)c1OC [Compound 20, 2-Chloro-4,6-bis(3,4,5-trimethoxyphenyl)nicotinonitrile]
Cytotoxicity / selectivity toward BJ1 normal cells (in words) (BJ1 normal cells): good selectivity | IC50 (MCF7 cells [1]): 2.4 ± 0.1 µM | Topo II % inhibition (Topo II): 70.3% | IC50 (HCT116 cells): 34.4 ± 3.2 µM | Apoptosis Early (MCF7 cells [2]): 11.91% | Apoptosis Late (MCF7 cells [2]): 22.63% | Apoptosis Total (MCF7 cells [2]): 38.41% | Necrosis (MCF7 cells [2]): 3.87% | %G0-G1 (MCF7 cells [3]): 39.69% | %G2/M (MCF7 cells [3]): 43.3% | %S (MCF7 cells [3]): 17.01% | IC50 (HepG2 cells): 6.1 ± 0.5 µM | tubulin polymerization % inhibition (beta-tubulin): 74.7%

COc1cc([C@@H]2c3cc4c(cc3[C@@H](O[C@@H]3O[C@@H]5CO[C@@H](C)O[C@H]5[C@H](O)[C@H]3O)[C@H]3COC(=O)[C@H]23)OCO4)cc(OC)c1O [Etoposide]
IC50 (HepG2): 10.5 µM | IC50 (HeLa; [4]): 12.2 µM

COc1ccc(-c2cc(-c3cc(OC)cc(OC)c3)c(C#N)c(N=P(c3ccccc3)(c3ccccc3)c3ccccc3)n2)cc1 [Compound 38, 4-(3,5-Dimethoxyphenyl)-6-(4-methoxyphenyl)-2-((triphenyl-λ^5-phosphaneylidene)amino)-nicotinonitrile]
Cytotoxicity / selectivity toward BJ1 normal cells (in words) (BJ1 normal cells): good selectivity | IC50 (MCF7 cells [1]): 2.5 ± 0.1 µM | IC50 (HCT116 cells): 31.5 ± 3.2 µM | IC50 (HepG2 cells): 12.2 ± 1.1 µM | tubulin polymerization % inhibition (beta-tubulin): 71.7%

COc1cc([C@@H]2c3[nH]c4ccccc4c3C[C@H]3COC(=O)N32)cc(OC)c1O [Azatoxin (NSC 640737), azatoxin]
IC50 (NCI): 0.13 µM

COc1ccc(-c2cccc(-c3ccc(OC)cc3OC)n2)cc1 [VII]
IC50 (MDA-MB-231): 0.0031 µM | IC50 (HeLa; 7 (CA-4), ref 13-15 (VII)): 0.0038 µM

Cc1cc(-c2ccco2)c(C#N)c(N=P(c2ccccc2)(c2ccccc2)c2ccccc2)n1 [Compound 41, 4-(Furan-2-yl)-6-methyl-2-((triphenyl-λ^5-phosphaneylidene)amino)nicotinonitrile]
Cytotoxicity / selectivity toward BJ1 normal cells (in words) (BJ1 normal cells): good selectivity | IC50 (MCF7 cells [1]): 2.4 ± 0.1 µM | IC50 (HCT116 cells): 38.2 ± 2.8 µM | IC50 (HepG2 cells): 27.3 ± 2.3 µM | tubulin polymerization % inhibition (beta-tubulin): 61.2%

COc1ccc(-c2cc(-c3cc(OC)c(OC)c(OC)c3)c(C#N)c(=O)[nH]2)cc1 [VIII]
IC50 (HL-60): 0.47 µM | IC50 (MCF-7): 0.18 µM

COc1ccc(-c2cc(-c3cc(OC)c(OC)c(OC)c3)c(C#N)c3nnnn23)cc1 [Compound 26, 5-(4-methoxyphenyl)-7-(3,4,5-trimethoxyphenyl)tetrazolo[1,5-a]pyridine-8-carbonitrile]
Cytotoxicity / selectivity toward BJ1 normal cells (in words) (BJ1 normal cells): good selectivity | IC50 (MCF7 cells [1]): 2.4 ± 0.1 µM | Topo II % inhibition (Topo II): 43.7% | IC50 (HCT116 cells): 63.4 ± 5.3 µM | Apoptosis Early (MCF7 cells [2]): 7.58% | Apoptosis Late (MCF7 cells [2]): 28.16% | Apoptosis Total (MCF7 cells [2]): 41.26% | Necrosis (MCF7 cells [2]): 5.51% | %G0-G1 (MCF7 cells [3]): 35.64% | %G2/M (MCF7 cells [3]): 50.69% | %S (MCF7 cells [3]): 13.67% | IC50 (HepG2 cells): 6.3 ± 0.3 µM | tubulin polymerization % inhibition (beta-tubulin): 75%

COc1ccc(O)c(C(=O)c2cnc3[nH]c4ccccc4c3c2)c1 [YCH337]
IC50 (HL-60): 0.21 µM | IC50 (HeLa; [4]): 0.06 µM
